Experimental data published in patent US20120095012A1, “TOLUIDINE SULFONAMIDES AND THEIR USE” (Elara Pharmaceuticals GmbH, priority 2008, published 2012).

Experiments:
[1] = system: HIF mediated transcription; test: Inhibition of activation of HIF mediated transcription under hypoxic conditions (CellSensor HRE-bla HCT-116 reporter, DFO-induced); type: cell-based; conditions: Homo sapiens; HRE-bla HCT-116 reporter cells, deferoxamine-induced hypoxia, 24 h
Method: Inhibition of an activated HIF signaling response under chemically-induced hypoxic conditions due to compound treatment was determined using the CellSensor® […] HCT-116 stably transfected reporter cell line from Invitrogen according to the manufacturer's instructions. HIF is a transcriptional factor composed of the constitutively expressed HIF 1β subunit and one of three HIFα subunits (HIF1α, HIF2α, HIF3α). This assay is responsive towards HIFα activity in general. In one example, HIF-1, when stabilized by hypoxic conditions, upregulates several genes to promote cell survival in low-oxygen conditions. These include glycolysis enzymes, which allow ATP synthesis in an oxygen-independent manner, and vascular endothelial growth factor (VEGF), which promotes angiogenesis. HIF-1 acts by binding to HIF-responsive elements (HREs) in promoters that generally contain the sequence NCGTG.
Cells were maintained as described previously and seeded into 384-well, clear-bottom plates (Corning 3712) at 15000 cells/well in 32 μl assay medium (Opti-MEM [Invitrogen], 0.5% FBS, 100 U/ml penicillin, 100 μg/ml streptomycin, 0.1 mM non-essential amino acids [NEAA], 1 mM sodium pyruvate, 5 mM HEPES [pH 7.3]). Following a 2 h incubation period, compounds (4 μl) were subsequently added to the cells at 10× concentrations in 5% DMSO and incubated under normal conditions for 30 min. To induce hypoxic conditions, 4 μl of a 2 mM deferoxamine (DFO) solution was added to the cells followed by 24 h incubation under standard assay conditions (as described). Control wells included wells containing only medium (no cells) and wells treated with 0.5% DMSO instead of compound.
Prior to the readout, the Substrate Loading Solution was prepared as described in the manufacturer's protocol and 10 μl added to each well. Following a further 2 h incubation period at room temperature and in the dark, fluorescence was measured at two wavelengths (blue channel: ex. 409 nm, em. 460 nm; green channel: ex. 409 nm, em. 530 nm) on a PerkinElmer Envision HTS. For the analysis, the average signal of the cell-free wells at 460 nm and 530 nm was first subtracted from the blue and green channel data, respectively. The blue/green emission ratios were then calculated for each well, dividing the background-corrected blue emission values by the background-corrected green emission values. IC50 values were determined from these ratios using GraphPad Prism (Prism 5, GraphPad software, Inc.).

[2] = target: T1, tubulin (from porcine brain) (Sus scrofa, UniProt P02550+P02554); test: Inhibition of in vitro tubulin polymerization (OD 340 nm, 90 min); type: biochemical; conditions: final absorbance at 90 min vs vehicle control, read-out: tubulin inhib. (at 10 μM)
T1 construct: prepared in-house from porcine brain using a standard procedure involving cycles of polymerization/de-polymerization; from tissue; host or cells: porcine brain
T1 sequence (P02550 whole entry): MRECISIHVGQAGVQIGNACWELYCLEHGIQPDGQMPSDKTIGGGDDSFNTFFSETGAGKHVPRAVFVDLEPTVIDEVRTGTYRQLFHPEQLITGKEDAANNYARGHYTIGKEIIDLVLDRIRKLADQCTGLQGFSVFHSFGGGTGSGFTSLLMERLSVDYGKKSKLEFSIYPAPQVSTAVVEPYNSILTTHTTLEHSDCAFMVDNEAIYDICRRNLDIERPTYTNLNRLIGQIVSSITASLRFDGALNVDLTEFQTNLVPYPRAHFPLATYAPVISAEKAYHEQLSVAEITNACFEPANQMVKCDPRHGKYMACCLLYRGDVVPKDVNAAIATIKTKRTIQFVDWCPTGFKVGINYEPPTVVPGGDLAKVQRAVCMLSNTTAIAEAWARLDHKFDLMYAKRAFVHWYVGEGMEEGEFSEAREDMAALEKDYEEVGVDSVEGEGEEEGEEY
T1 sequence (P02554 whole entry): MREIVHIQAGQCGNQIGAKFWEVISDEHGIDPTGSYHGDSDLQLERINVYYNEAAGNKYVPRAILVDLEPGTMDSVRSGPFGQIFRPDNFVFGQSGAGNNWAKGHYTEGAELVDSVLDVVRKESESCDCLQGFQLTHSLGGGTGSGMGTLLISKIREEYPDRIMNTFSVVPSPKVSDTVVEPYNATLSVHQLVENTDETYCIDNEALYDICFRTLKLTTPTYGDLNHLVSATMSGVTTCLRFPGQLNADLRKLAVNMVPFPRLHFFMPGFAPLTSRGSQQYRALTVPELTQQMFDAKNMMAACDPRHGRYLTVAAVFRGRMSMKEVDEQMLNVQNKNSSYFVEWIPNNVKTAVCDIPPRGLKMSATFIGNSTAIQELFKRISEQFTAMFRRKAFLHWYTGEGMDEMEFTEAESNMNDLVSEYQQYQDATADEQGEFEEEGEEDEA
Method: To assess the degree of inhibition of in vitro tubulin polymerization, a tubulin solution (prepared in-house from porcine brain using a standard procedure involving cycles of polymerization/de-polymerization, (see Castoldi & Popov (2003) Protein Expr. Purif. 32(1): 83-88), was incubated with varying concentrations of compounds under polymerizing conditions and kinetic experiments performed to determine the amount of polymerization (as measured by changes in OD at 340 nm) taking place over a 90 min period.
Compound solutions were diluted in double-distilled water to yield final 10× solutions containing 5% DMSO. 5 μl solutions were then added to the wells on a 384-well clear-bottom plate (Corning #3711, Corning Inc.) in preparation for the addition of tubulin. The tubulin solution (19.6 mg/ml, in 80 mM K-PIPES [pH 6.8], 1 mM MgCl2, 1 mM EGTA) was re-suspended to a final concentration of 4 mg/ml with ice cold G-PEM buffer (80 mM PIPES [pH 6.8], 2 mM MgCl2, 0.5 mM EGTA, 10% glycerol, 1 mM GTP) and maintained on ice for at least 1 min. 50 μl was then added to the pre-dispensed compound solutions, the plate orbital shaken on a medium setting for 5s, and the first measurement begun immediately.
Experiments were carried out on a Safire^2 ™ monochromator (Tecan) preset to a stable temperature of 37° C.; the degree of polymerization was determined by measuring the absorbance of the solutions at 340 nm every minute over the 90 min cycle. Reported inhibition values were based on the final absorbance at 90 min and calculated with reference to a vehicle control (0.5% DMSO) using the minimum and maximum signals obtained for this sample.

[3] = system: MCF-7 human breast adenocarcinoma cells; HRE-bla HCT116 cell line (colorectal carcinoma); test: Cell proliferation assay (ATPlite luminescence); type: cell-based; conditions: ATPlite readout, cell line not given
Method: MCF-7 human breast adenocarcinoma cells were obtained from ATCC (LGC Promochem). The CellSensor® HRE-bla HCT116 cell line (colorectal carcinoma) was obtained from Invitrogen.
Cells were grown under humidified 95% air, 5% CO2 at 37° C. in Dulbecco's modified Eagle's medium (DMEM: MCF-7) or McCoy's 5A medium (HRE-bla HCT116) supplemented with 10% fetal bovine serum (FBS), 100 U/ml penicillin and 100 μg/ml streptomycin, 2 mM L-glutamine, and blasticidin at 5 μg/ml as a selection marker (for the HRE-bla HCT116 cell line only).
Cell proliferation experiments were carried out in 96-well tissue culture plates with seeding of 2000 cells/well in 100 μl of the relevant medium. Cells were subsequently incubated under the conditions mentioned for 24 h prior to addition of compounds.
To determine the degree of inhibition of cell proliferation, cells were treated with ATPlite solution according to the manufacturer's instructions (PerkinElmer, ATPlite 1-step Luminescence ATP Detection Assay System) and luciferase readout measured on an Envision HTS multilabel plate reader (PerkinElmer) in luminescence mode according to established protocols. Raw data were imported into an ActivityBase database (IDBS, ID Business Solutions) and EC50 values calculated using the IDBS program ActivityBase XE.

Compound | EC50 [1] [nM] | inhibition at 10 µM [2] [%] | EC50 ([3]; Homo sapiens) [nM] | EC50 [3] [nM]
CCc1ccc(S(=O)(=O)Nc2cc(-c3ccc(C#N)s3)ccc2C)s1 [Example 1, 5-Ethyl-thiophene-2-sulfonic acid [5-(5-cyano-thiophen-2-yl)-2-methyl-phenyl]-amide] | < 500 | 20 to 50 | < 500 | –
COc1ccc(S(=O)(=O)Nc2cc(-c3ccc(C#N)s3)ccc2C)cn1 [Example 2, 6-Methoxy-pyridine-3-sulfonic acid [5-(5-cyano-thiophen-2-yl)-2-methyl-phenyl]-amide] | < 500 | < 20 | < 500 | –
Cc1ccc(S(=O)(=O)Nc2cc(-c3ccc(C#N)s3)ccc2C)s1 [Example 3, 5-Methyl-thiophene-2-sulfonic acid [5-(5-cyano-thiophen-2-yl)-2-methyl-phenyl]-amide] | – | < 20 | < 500 | –
COc1ccc(S(=O)(=O)Nc2cc(-c3csc(C#N)c3)ccc2C)cn1 [Example 7, N-(5-(5-cyanothiophen-3-yl)-2-methylphenyl)-6-methoxypyridine-3-sulfonamide] | < 500 | – | < 500 | –
Cc1ccc(S(=O)(=O)Nc2cc(-c3ccc(C#N)cc3)ccc2C)s1 [Example 8, N-(4′-cyano-4-methylbiphenyl-3-yl)-5-methylthiophene-2-sulfonamide] | < 500 | – | < 500 | –
COc1ccc(S(=O)(=O)Nc2cc(-c3ccc(C#N)c(OC)c3)ccc2C)cn1 [Example 18, N-(4′-cyano-3′-methoxy-4-methylbiphenyl-3-yl)-6-methoxypyridine-3-sulfonamide] | < 500 | – | < 500 | –
Cc1ccc(S(=O)(=O)Nc2cc(-c3ccc(C#N)cc3)ccc2C)cn1 [Example 23, N-(4′-cyano-4-methylbiphenyl-3-yl)-6-methylpyridine-3-sulfonamide] | < 500 | – | < 500 | –
Cc1ccc(S(=O)(=O)Nc2cc(-c3ccc(C#N)s3)ccc2C)cn1 [Example 24, N-(5-(5-cyanothiophen-2-yl)-2-methylphenyl)-6-methylpyridine-3-sulfonamide] | < 500 | – | < 500 | –
Cc1ccc(-c2ccc(C#N)s2)cc1NS(=O)(=O)c1ccc(Cl)nc1 [Example 28, 6-chloro-N-(5-(5-cyanothiophen-2-yl)-2-methylphenyl)pyridine-3-sulfonamide] | – | – | < 500 | –
Cc1ccc(-c2ccc(C#N)s2)cc1NS(=O)(=O)c1ccc(N(C)C)nc1 [Example 29, N-(5-(5-cyanothiophen-2-yl)-2-methylphenyl)-6-(dimethylamino)pyridine-3-sulfonamide] | – | – | < 500 | –
N-(4′-cyano-4-methylbiphenyl-3-yl)-6-(dimethylamino)pyridine-3-sulfonamide [Example 27] | – | – | – | 500 to 1000
